Assay results as given in ChEMBL document CHEMBL1150090, “Agastaquinone, a new cytotoxic diterpenoid quinone from Agastache rugosa” (1995).
In brackets after ≈: the same amount, converted by molar mass.

Columns and labels:
Format in all cases: functional
Details in all cases: read-out: ED50 (the source's name)
A549 = test: Cytotoxicity against human A549 cells
SK-OV-3 = test: Cytotoxicity against human SKOV3 cells
SK-MEL-2 = test: Cytotoxicity against human SK-MEL-2 cells
XF498 = test: Cytotoxicity against human XF498 cells
HCT-15 = test: Cytotoxicity against human HCT15 cells

SMILES | EC50 (A549) | EC50 (SK-OV-3) | EC50 (SK-MEL-2) | EC50 (XF498) | EC50 (HCT-15)
COC1=C(C(C)C)C(=O)c2c(O)cc3c(c2C1=O)C=C/C(=N\O)C3(C)C | 9.1 µg/mL (≈ 25.6 µM) | 18.7 µg/mL (≈ 52.6 µM) | 11.8 µg/mL (≈ 33.2 µM) | 8.5 µg/mL (≈ 23.9 µM) | 7 µg/mL (≈ 19.7 µM)
COC1=C(C(C)C)C(=O)c2c(O)cc3c(c2C1=O)C=CC(=O)C3(C)C [AGASTAQUINONE] | 6.8 µg/mL (≈ 20 µM) | 12.8 µg/mL (≈ 37.6 µM) | 4.1 µg/mL (≈ 12 µM) | 1.8 µg/mL (≈ 5.29 µM) | 5.2 µg/mL (≈ 15.3 µM)
